Measurements from patent US11492385B2, “Long-acting co-agonists of the glucagon and GLP-1 receptors” (Merck Sharp & Dohme Corp., priority 2015, dated 2022).
Starred links: 1 amine or outer side, 2 acyl side, 3 side chain; linkers in the order of their positions; H or OH if unused. Non-standard residues stand in square brackets, D forms with d. Residues, ends and D or L forms follow the SMILES beside them. Groups on a side chain read outwards from the residue. *: point of attachment. Phe(4-CH2NH2) = NCc1ccc(C[C@H](N)C(=O)O)cc1; C18 diacid = O=C(O)CCCCCCCCCCCCCCCCC(=O)*; C16 diacid = O=C(O)CCCCCCCCCCCCCCC(=O)*; γGlu = O=C(O)[C@H](CCC(=O)[*:2])N[*:1]; X1 = O=C([C@H]1CCC[C@@H]1N[*:1])[*:2]; Met(O2) = CS(=O)(=O)CC[C@H](N)C(=O)O; αMeD = C[C@](N)(CC(=O)O)C(=O)O; AEEA = NCCOCCOCC(=O)O; Aib = CC(C)(N)C(=O)O

Legend:
[1] = biological target: T1, human GCGR (Homo sapiens, UniProt P47871); assay: cAMP activity assay, cells expressing human GCGR; assay type: cell-based; conditions: for EC50: cAMP production, cells expressing human GCGR, assay buffer with or without 20% human serum (not stated which), read-out: GCGR EC50 human; for hGCGR/hGLP1R (hTone): ratio of human GCGR EC50 to human GLP1R EC50
T1 construct: expressed in transfected cells; kept under Blasticidin and Hygromycin selection
Procedure, shortened: (§1)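 Peptides as 10-point titrations from DMSO tested on cells expressing human GLP1R or GCGR. cAMP measured by luminescent kit after overnight room-temperature incubation in the dark. EC50 from four-parameter logistic fit; native GLP-1 and glucagon as controls.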

[2] = biological target: T2, human GLP1R (Homo sapiens, UniProt P43220); assay: cAMP activity assay, cells expressing human GLP1R; assay type: cell-based; conditions: cAMP production, assay buffer with or without 20% human serum (not stated which)
T2 construct: expressed in transfected cells; kept under Blasticidin and Hygromycin selection
Procedure, shortened: as §1

T2 sequence (P43220 24-463): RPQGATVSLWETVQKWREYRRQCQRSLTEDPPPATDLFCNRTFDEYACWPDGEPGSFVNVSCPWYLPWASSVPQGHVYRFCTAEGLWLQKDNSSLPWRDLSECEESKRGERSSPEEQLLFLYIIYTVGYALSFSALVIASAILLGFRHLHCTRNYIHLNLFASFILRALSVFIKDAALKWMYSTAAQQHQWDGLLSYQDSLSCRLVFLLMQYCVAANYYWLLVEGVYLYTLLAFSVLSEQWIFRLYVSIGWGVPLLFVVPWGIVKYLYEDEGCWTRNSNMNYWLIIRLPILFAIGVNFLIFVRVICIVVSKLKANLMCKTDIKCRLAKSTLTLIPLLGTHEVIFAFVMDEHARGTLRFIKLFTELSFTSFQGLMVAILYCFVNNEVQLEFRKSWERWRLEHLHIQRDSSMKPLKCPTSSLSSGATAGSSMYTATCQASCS
T1 sequence (P47871 26-477): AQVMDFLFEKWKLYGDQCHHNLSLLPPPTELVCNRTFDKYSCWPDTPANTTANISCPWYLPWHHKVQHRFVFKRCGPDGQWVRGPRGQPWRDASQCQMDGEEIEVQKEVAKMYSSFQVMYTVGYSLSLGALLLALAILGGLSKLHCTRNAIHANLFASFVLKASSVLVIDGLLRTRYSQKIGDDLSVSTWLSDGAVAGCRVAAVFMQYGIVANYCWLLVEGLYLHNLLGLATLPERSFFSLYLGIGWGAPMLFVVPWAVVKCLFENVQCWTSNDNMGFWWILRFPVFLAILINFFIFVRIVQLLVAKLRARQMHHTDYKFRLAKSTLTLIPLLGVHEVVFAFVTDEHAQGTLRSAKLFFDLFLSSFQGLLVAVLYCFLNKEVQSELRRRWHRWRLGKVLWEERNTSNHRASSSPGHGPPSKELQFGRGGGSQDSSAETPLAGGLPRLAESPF

SMILES	EC50 [1] [nM]	hGCGR/hGLP1R (hTone) [1]	EC50 [2] [nM]
CC(C)C[C@H](NC(=O)[C@H](Cc1c[nH]c2ccccc12)NC(=O)[C@H](CCC(N)=O)NC(=O)[C@@H](NC(=O)[C@H](Cc1ccccc1)NC(=O)[C@H](CC(=O)O)NC(=O)[C@H](CCC(N)=O)NC(=O)[C@H](C)NC(=O)[C@H](C)NC(=O)[C@H](CCCNC(=N)N)NC(=O)C(C)(C)NC(=O)[C@H](CC(=O)O)NC(=O)[C@H](CC(C)C)NC(=O)[C@H](Cc1ccc(O)cc1)NC(=O)[C@H](Cc1ccc(CNC(=O)COCCOCCNC(=O)COCCOCCNC(=O)CC[C@H](NC(=O)CCCCCCCCCCCCCCC(=O)O)C(=O)O)cc1)NC(=O)[C@H](CO)NC(=O)[C@H](Cc1ccc(O)cc1)NC(=O)[C@H](CC(=O)O)NC(=O)[C@H](CO)NC(=O)[C@@H](NC(=O)[C@H](Cc1ccccc1)NC(=O)[C@@H](NC(=O)CNC(=O)[C@H](CCC(N)=O)NC(=O)C(C)(C)NC(=O)[C@@H](N)Cc1c[nH]cn1)[C@@H](C)O)[C@@H](C)O)C(C)C)C(=O)N[C@@H](CCS(C)(=O)=O)C(=O)N[C@@H](CC(=O)O)C(=O)N[C@H](C(N)=O)[C@@H](C)O [compound 25] (H-H[Aib]QGTFTSDYS[Phe(4-CH2NH2)]([AEEA-AEEA-γGlu-C16 diacid])YLD[Aib]RAAQDFVQWL[Met(O2)]DT-NH2)	0.32	14.00	0.02
CC(C)C[C@H](NC(=O)[C@H](Cc1ccc(O)cc1)NC(=O)[C@H](CCCCN)NC(=O)[C@H](CO)NC(=O)[C@H](Cc1ccc(O)cc1)NC(=O)[C@H](CC(=O)O)NC(=O)[C@H](CO)NC(=O)[C@@H](NC(=O)[C@H](Cc1ccccc1)NC(=O)[C@@H](NC(=O)CNC(=O)[C@H](CCC(N)=O)NC(=O)C(C)(C)NC(=O)[C@@H](N)Cc1c[nH]cn1)[C@@H](C)O)[C@@H](C)O)C(=O)N[C@@H](CC(=O)O)C(=O)N[C@@H](C)C(=O)N[C@@H](CCCNC(=N)N)C(=O)N[C@@H](C)C(=O)N[C@@H](C)C(=O)N[C@@H](CCC(N)=O)C(=O)N[C@@H](CCCCNC(=O)COCCOCCNC(=O)COCCOCCNC(=O)CC[C@H](NC(=O)CCCCCCCCCCCCCCCCC(=O)O)C(=O)O)C(=O)N[C@@H](Cc1ccccc1)C(=O)N[C@H](C(=O)N[C@@H](CCC(N)=O)C(=O)N[C@@H](Cc1c[nH]c2ccccc12)C(=O)N[C@@H](CC(C)C)C(=O)N[C@@H](CCS(C)(=O)=O)C(=O)N[C@@](C)(CC(=O)O)C(=O)N[C@H](C(N)=O)[C@@H](C)O)C(C)C [compound 71] (H-H[Aib]QGTFTSDYSKYLDARAAQK([AEEA-AEEA-γGlu-C18 diacid])FVQWL[Met(O2)][αMeD]T-NH2)	0.13	1	0.17
CC(C)C[C@H](NC(=O)[C@H](CC(C)C)NC(=O)[C@H](CCCCN)NC(=O)[C@H](CO)NC(=O)[C@H](Cc1ccc(O)cc1)NC(=O)[C@H](CC(=O)O)NC(=O)[C@H](CO)NC(=O)[C@@H](NC(=O)[C@H](Cc1ccccc1)NC(=O)[C@@H](NC(=O)CNC(=O)[C@H](CCC(N)=O)NC(=O)C(C)(C)NC(=O)[C@@H](N)Cc1c[nH]cn1)[C@@H](C)O)[C@@H](C)O)C(=O)N[C@@H](CC(=O)O)C(=O)N[C@@H](C)C(=O)N[C@@H](CCCNC(=N)N)C(=O)N[C@@H](C)C(=O)N[C@@H](C)C(=O)N[C@@H](CCCCNC(=O)COCCOCCNC(=O)COCCOCCNC(=O)CC[C@H](NC(=O)CCCCCCCCCCCCCCCCC(=O)O)C(=O)O)C(=O)N[C@@H](CC(=O)O)C(=O)N[C@@H](Cc1ccccc1)C(=O)N[C@H](C(=O)N[C@@H](CCC(N)=O)C(=O)N[C@@H](Cc1c[nH]c2ccccc12)C(=O)N[C@@H](CC(C)C)C(=O)N[C@@H](CCS(C)(=O)=O)C(=O)N[C@@](C)(CC(=O)O)C(=O)N[C@H](C(N)=O)[C@@H](C)O)C(C)C [compound 79] (H-H[Aib]QGTFTSDYSKLLDARAAK([AEEA-AEEA-γGlu-C18 diacid])DFVQWL[Met(O2)][αMeD]T-NH2)	0.69	0.8	0.84
CC(C)C[C@H](NC(=O)[C@H](Cc1ccc(O)cc1)NC(=O)[C@H](CCCCN)NC(=O)[C@H](CO)NC(=O)[C@H](Cc1ccc(O)cc1)NC(=O)[C@H](CC(=O)O)NC(=O)[C@H](CO)NC(=O)[C@@H](NC(=O)[C@H](Cc1ccccc1)NC(=O)[C@@H](NC(=O)CNC(=O)[C@H](CCC(N)=O)NC(=O)[C@@H](CO)NC(=O)[C@@H](N)Cc1c[nH]cn1)[C@@H](C)O)[C@@H](C)O)C(=O)N[C@@H](CC(=O)O)C(=O)N[C@@H](C)C(=O)N[C@@H](CCCNC(=N)N)C(=O)N[C@@H](C)C(=O)N[C@@H](C)C(=O)N[C@@H](CCC(N)=O)C(=O)N[C@@H](Cc1ccc(CNC(=O)COCCOCCNC(=O)COCCOCCNC(=O)CC[C@H](NC(=O)CCCCCCCCCCCCCCC(=O)O)C(=O)O)cc1)C(=O)N[C@@H](Cc1ccccc1)C(=O)N[C@H](C(=O)N[C@@H](CCC(N)=O)C(=O)N[C@@H](Cc1c[nH]c2ccccc12)C(=O)N[C@@H](CC(C)C)C(=O)N[C@@H](CC(C)C)C(=O)N[C@@H](CC(=O)O)C(=O)N[C@H](C(N)=O)[C@@H](C)O)C(C)C [compound 23] (H-H[dS]QGTFTSDYSKYLDARAAQ[Phe(4-CH2NH2)]([AEEA-AEEA-γGlu-C16 diacid])FVQWLLDT-NH2)	0.04	0.14	0.27

Results, then the compound that gave them:

EC50 [1] [nM]	hGCGR/hGLP1R (hTone) [1]	EC50 [2] [nM]	SMILES
0.67	6.24	0.11	CC(C)C[C@H](NC(=O)[C@H](Cc1ccc(O)cc1)NC(=O)[C@H](CCCCN)NC(=O)[C@H](CO)NC(=O)[C@H](Cc1ccc(O)cc1)NC(=O)[C@](C)(CC(=O)O)NC(=O)[C@H](CO)NC(=O)[C@@H](NC(=O)[C@H](Cc1ccccc1)NC(=O)[C@@H](NC(=O)CNC(=O)[C@H](CCC(N)=O)NC(=O)C(C)(C)NC(=O)[C@@H](N)Cc1c[nH]cn1)[C@@H](C)O)[C@@H](C)O)C(=O)N[C@@H](CC(=O)O)C(=O)N[C@@H](C)C(=O)N[C@@H](CCCNC(=N)N)C(=O)N[C@@H](C)C(=O)N[C@@H](C)C(=O)N[C@@H](CCCCNC(=O)COCCOCCNC(=O)COCCOCCNC(=O)CC[C@H](NC(=O)CCCCCCCCCCCCCCC(=O)O)C(=O)O)C(=O)N[C@@H](CC(=O)O)C(=O)N[C@@H](Cc1ccccc1)C(=O)N[C@H](C(=O)N[C@@H](CCC(N)=O)C(=O)N[C@@H](Cc1c[nH]c2ccccc12)C(=O)N[C@@H](CC(C)C)C(=O)N[C@@H](CCS(C)(=O)=O)C(=O)N[C@@H](CC(=O)O)C(=O)N[C@H](C(N)=O)[C@@H](C)O)C(C)C [compound 37] (H-H[Aib]QGTFTS[αMeD]YSKYLDARAAK([AEEA-AEEA-γGlu-C16 diacid])DFVQWL[Met(O2)]DT-NH2)
0.64	0.53	1.2	CC(C)C[C@H](NC(=O)[C@H](Cc1ccc(O)cc1)NC(=O)[C@H]1CCC[C@@H]1NC(=O)[C@H](CO)NC(=O)[C@H](Cc1ccc(O)cc1)NC(=O)[C@H](CC(=O)O)NC(=O)[C@H](CO)NC(=O)[C@@H](NC(=O)[C@H](Cc1ccccc1)NC(=O)[C@@H](NC(=O)CNC(=O)[C@H](CCC(N)=O)NC(=O)C(C)(C)NC(=O)[C@@H](N)Cc1c[nH]cn1)[C@@H](C)O)[C@@H](C)O)C(=O)N[C@@H](CC(=O)O)C(=O)NC(C)(C)C(=O)N[C@@H](CCCNC(=N)N)C(=O)N[C@@H](C)C(=O)N[C@@H](C)C(=O)N[C@@H](CCCCNC(=O)COCCOCCNC(=O)COCCOCCNC(=O)CC[C@H](NC(=O)CCCCCCCCCCCCCCCCC(=O)O)C(=O)O)C(=O)N[C@@H](CC(=O)O)C(=O)N[C@@H](Cc1ccccc1)C(=O)N[C@H](C(=O)N[C@H]1CCC[C@@H]1C(=O)N[C@@H](Cc1c[nH]c2ccccc12)C(=O)N[C@@H](CC(C)C)C(=O)N[C@@H](CCS(C)(=O)=O)C(=O)N[C@@H](CC(=O)O)C(=O)N[C@H](C(N)=O)[C@@H](C)O)C(C)C [compound 34] (H-H[Aib]QGTFTSDYS[X1]YLD[Aib]RAAK([AEEA-AEEA-γGlu-C18 diacid])DFV[X1]WL[Met(O2)]DT-NH2; N-terminus assumed)
